Measurements from US9096605B2, “Pyrazolopyrimidine derivatives as PI3 kinase inhibitors” (GlaxoSmithKline LLC, priority 2011, dated 2015).

How the values were obtained:
[1] = system: pAKT(Ser473) in MDA-MB-468 cells; test: pAKT(Ser473) assay in MDA-MB-468 cells; assay type: cell-based; settings: Homo sapiens, 0.5 h, compound treatment 30 minutes, MSD ELISA phospho AKT(Ser473), given as ranges, read-out: Cell Activity—pAKT IC50 in MDA-MB-468
Procedure: pAKT(Ser473) Assay in MDA-MB-468 Cells
MDA-MB-468 cells were plated in 384-well flat clear bottom tissue culture plates (Corning #3701) at a density of 5000 cells per 0.057 cm2 in 48 ul of RPMI 1640 media supplemented with 10% fetal bovine serum (FBS). Cells were seeded with a Wellmate liquid handler (Matrix). Columns 1 through 23 were plated with cells and column 24 contained media alone. Cells were incubated at 37° C. with 5% CO2 for approximately 16-20 hours. Duplicate compound plates were prepared in 384-well polypropylene V-Bottom plates (Greiner #781280).
Compound titrations were made across the columns (A1-A20). 20 ul of compound was added to the first column and diluted into a 20 point curve with dimethylsulfoxide (DMSO, Thermo #TS2064) using a 2-fold dilution factor with a liquid handling robot (Hamilton). Columns 22 through 24 contained DMSO alone. Titrations were diluted 682-fold for compound treatment with 4 ul of compound added to 105 ul of RPMI media. Two ul of the diluted compound was added to the cell plates containing 48 ul of media using a multimek robot (Beckman Coulter). Final DMSO concentrations were 0.15%. Cells were treated with compound for 30 minutes at 37° C. with 5% CO2.
Following incubation, media was aspirated from dosed cell plates using an ELx405 plate washer (Bio-Tek) and 25 ul of 4° C. Meso Scale Discovery (MSD) lysis buffer with the addition of protease and phosphatase inhibitors (supplied in MSD kit #N31CB-1) was added to each well using a multidrop combi (Thermo). Precoated 4-spot per well MSD ELISA plates coated with total and phospho AKT(Ser473) antibody and BSA (supplied in kit) were blocked for 1 hour at room temperature with 35 ul per well of 1× MSD wash buffer+3% BSA (supplied in kit).
Blocked plates were washed 4 times with 100 ul per well of 1× Tris wash buffer (supplied in MSD kit) using an Elx405 plate washer (Bio-Tek). To each well, 20 ul of cell lysate was added using a multimek robot (Beckman Coulter) and the plate incubated at 4° C. overnight (˜12-24 hours). Following incubation, the ELISA plates were washed 4 times (100 ul/well) with 1× Tris wash buffer. Twenty microliters per well of 1× detection antibody (supplied in MSD kit) was added using a multidrop combi (Thermo), followed by a 2 hour incubation at room temperature. Detection antibody was aspirated and the plates washed 4 times (100 ul/well) with 1× Tris wash buffer. Read Buffer (supplied in MSD kit) was added at 1× (35 ul/well) at room temperature using a multidrop (Thermo). Relative luminescence units (RLU) were determined using a SECTOR™ Imager 6000 with MSD Workbench Software.
Concentration Response Curves for pAKT(Ser473):
For analysis of the pAKT(Ser473) concentration response curves, the data was normalized using Phospho AKT values divided by the sum of corresponding Total AKT and Phospho AKT values. The normalized values are plotted as the percent of the DMSO-treated control values on the corresponding plate. To determine IC50 values, the data is fit to a 4 parameter nonlinear sigmoidal dose response (variable slope) using GraphPad Prism version 4 for Windows, (GraphPad Software, San Diego Calif. USA). Criteria for curve fitting and IC50 determination include that the IC50 values from duplicate runs must be within 2 to 3-fold of each other, the Y min must be less than or equal to 30% of the DMSO-treated control and the Y max must range between 80-120%. Any data point equal to or greater than 40% of the curve was not utilized.

[2] = molecular target: T1, PI3K-beta (Homo sapiens, UniProt P42338); test: HTRF in vitro profiling assay for PI3K inhibition (beta isoform); assay type: biochemical; settings: PI3K-beta enzyme pIC50 range, 200 pM enzyme, 100 uM ATP, 10 uM PIP2, 150 mM NaCl, corrected pIC50, read-out: PI3K-b Enz Activity
T1 construct: made in house
Excerpt: HTRF In Vitro Profiling Assays for PI3K Inhibition
The PI3-Kinase profiling assays were developed to measure the compound-dependent inhibition of the alpha, beta, delta, and gamma isoforms of PI3K in an in vitro catalytic assay. This assay was developed and optimized from a kit produced by Upstate (Millipore catalog #33-017). Briefly, this procedure utilizes a pre-formed HTRF (Homogeneous Time-Resolved Fluorescence energy transfer) complex between four binding partners: 1) biotinylated PIP3, 2) GST tagged pleckstrin homology (PH) domain, 3) Europium labeled anti-GST monoclonal antibody, and 4) Streptavidin-Allophycocyanin (APC). The native PIP3 produced by PI 3-Kinase activity displaces biotin-PIP3 from the PH domain, resulting in the dissociation of the HTRF complex and a decrease in the fluorescence signal. The format of this assay is the same for all 4 isoforms of PI3K; the differences lie in the concentration of enzyme used to achieve the most robust signal. The alpha and delta assays are run at 400 pM enzyme; the beta assay is at 200 pM enzyme and the gamma assay is run at 1 nM enzyme. In addition, the alpha, beta and delta assays are run with 150 mM NaCl while the gamma assay is run in the absence of NaCl. The ATP concentration is 100 uM in the alpha, beta, and delta assays and 15 uM ATP in the gamma assay. All reactions are run at 10 uM PIP2
Compounds are serially diluted (3-fold in 100% DMSO) across a 384-well polypropylene mother plate from column 1 to column 12 and column 13 to column 24, to yield 11 concentrations for each test compound. Columns 6 and 18 contain only DMSO. Once titrations are made, […] is transferred to a 384-well low-volume assay plate (Greiner 784076). This assay plate contains three pharmacological controls (known PI3K inhibitors) and 3 assay controls: (1) Enzyme without inhibitor; (2) Buffer minus enzyme, and (3) Buffer minus enzyme plus native PIP3. DMSO is stamped into all wells of columns 6 and 18. PIP3 is added at 40 μM in 1× Reaction buffer (1 μL of 200 μM PIP3) to alternating rows of column 18 (wells 18 B, D, F, H, J, L, N, P). The no-enzyme control reactions are run in wells 18 A, C, E, G, I, K, M, O (0.1 μL of 100% DMSO).
The PI3-Kinase profiling assay was optimized using the HTRF kit provided by Upstate (Millipore). The assay kit contains seven reagents: 1) 4× Reaction Buffer; 2) native PIP2 (substrate); 3) Stop A (EDTA); 4) Stop B (Biotin-PIP3); 5) Detection Mix A (Streptavidin-APC); 6) Detection Mix B (Eu-labeled Anti-GST plus GST-tagged PH-domain); 7) Detection Mix C (KF). In addition, the following items were obtained or purchased: PI3Kinase (prepared by GSK BR&AD), dithiothreitol (Sigma, D-5545), Adenosine-5′-triphosphate (ATP, Teknova cat. # A0220), native PIP3 (1,2-dioctanoyl-sn-glycero-3-[phosphoinositil-3,4,5-triphosphate]tetraammonium salt (Avanti polar lipids, 850186P), DMSO (Sigma, 472301).
PI3Kinase Reaction Buffer is prepared by diluting the stock 1:4 with de-ionized water. Freshly prepared DTT is added at a final concentration of 5 mM on the day of use. Enzyme addition and compound pre-incubation are initiated by the addition of 2.5 μL of PI3K (at twice its final concentration) in 1× reaction buffer to all wells using a Multidrop Combi. Plates are incubated at room temperature for 15 minutes. Reactions are initiated by addition of 2.5 μL of 2× substrate solution (PIP2 and ATP in 1× reaction buffer) using a Multidrop Combi. Plates are incubated at room temperature for one hour. Reactions are quenched by the addition of 2.5 μL of stop solution (Stop A and Stop B pre-mixed at a ratio of 5:1, respectively) to all wells using the Multidrop Combi. […]

T1 sequence (P42338 whole entry, canonical isoform): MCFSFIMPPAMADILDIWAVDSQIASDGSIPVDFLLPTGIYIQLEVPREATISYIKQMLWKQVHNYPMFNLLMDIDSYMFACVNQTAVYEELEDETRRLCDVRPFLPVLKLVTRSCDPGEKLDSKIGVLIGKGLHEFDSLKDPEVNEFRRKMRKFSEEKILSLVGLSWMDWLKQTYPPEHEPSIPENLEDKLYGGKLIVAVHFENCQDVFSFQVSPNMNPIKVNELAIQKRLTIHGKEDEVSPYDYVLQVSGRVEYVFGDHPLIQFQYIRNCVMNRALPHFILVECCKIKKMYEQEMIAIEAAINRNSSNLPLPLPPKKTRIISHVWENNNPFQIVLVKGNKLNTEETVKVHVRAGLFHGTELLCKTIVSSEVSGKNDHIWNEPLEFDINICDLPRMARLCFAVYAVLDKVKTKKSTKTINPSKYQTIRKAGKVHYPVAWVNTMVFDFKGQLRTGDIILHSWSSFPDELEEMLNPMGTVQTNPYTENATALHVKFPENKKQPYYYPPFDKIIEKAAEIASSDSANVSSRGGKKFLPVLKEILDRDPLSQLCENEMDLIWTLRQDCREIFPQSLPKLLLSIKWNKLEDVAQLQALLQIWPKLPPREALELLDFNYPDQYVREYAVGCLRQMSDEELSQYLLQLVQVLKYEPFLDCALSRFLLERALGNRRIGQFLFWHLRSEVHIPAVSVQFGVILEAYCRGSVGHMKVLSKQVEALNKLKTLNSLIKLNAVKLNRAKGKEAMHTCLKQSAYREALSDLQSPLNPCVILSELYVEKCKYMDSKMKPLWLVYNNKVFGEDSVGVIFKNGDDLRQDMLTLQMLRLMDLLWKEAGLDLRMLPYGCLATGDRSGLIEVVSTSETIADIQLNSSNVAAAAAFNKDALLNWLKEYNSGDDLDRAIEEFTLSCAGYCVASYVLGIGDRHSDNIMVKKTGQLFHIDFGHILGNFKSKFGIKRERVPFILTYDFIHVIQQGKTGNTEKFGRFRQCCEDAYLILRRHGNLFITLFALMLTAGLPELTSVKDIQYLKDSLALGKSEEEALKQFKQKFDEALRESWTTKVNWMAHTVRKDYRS
T1 sequence (P27986 whole entry partner, canonical isoform): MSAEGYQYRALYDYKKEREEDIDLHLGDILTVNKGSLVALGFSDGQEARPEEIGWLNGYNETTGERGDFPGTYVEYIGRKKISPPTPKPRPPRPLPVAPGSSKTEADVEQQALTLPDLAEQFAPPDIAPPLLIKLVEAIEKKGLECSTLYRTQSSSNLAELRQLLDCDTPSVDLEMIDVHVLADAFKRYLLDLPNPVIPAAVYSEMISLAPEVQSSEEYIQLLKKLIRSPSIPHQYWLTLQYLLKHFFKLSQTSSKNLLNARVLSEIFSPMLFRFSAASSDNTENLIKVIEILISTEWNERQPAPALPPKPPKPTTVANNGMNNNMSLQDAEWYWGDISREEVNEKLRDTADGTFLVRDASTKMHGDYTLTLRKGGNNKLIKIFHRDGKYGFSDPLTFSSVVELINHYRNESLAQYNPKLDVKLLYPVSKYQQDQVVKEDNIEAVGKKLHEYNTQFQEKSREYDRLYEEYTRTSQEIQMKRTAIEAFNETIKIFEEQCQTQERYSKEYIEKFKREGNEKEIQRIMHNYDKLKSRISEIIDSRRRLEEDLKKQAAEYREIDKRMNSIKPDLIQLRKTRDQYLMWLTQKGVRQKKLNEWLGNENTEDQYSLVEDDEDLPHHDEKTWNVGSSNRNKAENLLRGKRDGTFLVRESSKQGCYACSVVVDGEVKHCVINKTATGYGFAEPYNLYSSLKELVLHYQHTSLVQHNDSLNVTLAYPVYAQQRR

Row | SMILES | IC50 [1] | IC50 [2]
1 | Cc1nn2c(O)cc(N3CCOCC3=O)nc2c1Cc1cccc(C(F)(F)F)c1C [Example 3, 4-(7-hydroxy-2-methyl-3-(2-methyl-3-(trifluoromethyl)benzyl)pyrazolo[1,5-a]pyrimidin-5-yl)morpholin-3-one] | > 20000 nM | 126 to 1260 nM
2 | Cc1nn2ccc(C3CCOCC3)nc2c1Cc1cccc(C(F)(F)F)c1C [Example 5, 2-methyl-3-(2-methyl-3-(trifluoromethyl)benzyl)-5-(tetrahydro-2H-pyran-4-yl)pyrazolo[1,5-a]pyrimidine] | > 20000 nM | 126 to 1260 nM
3 | CC1CN(c2cc(O)n3nc(C(F)(F)F)c(Cc4cccc(Cl)c4Cl)c3n2)CCO1 (stereo not drawn) [Example 8, 3-(2,3-dichlorobenzyl)-5-(2-methylmorpholino)-2-(trifluoromethyl)pyrazolo[1,5-a]pyrimidin-7-ol] | 6000 to 10000 nM | 1.26 to 10 nM
4 | Oc1cc(C2CCOCC2)nc2c(Cc3cccc(Cl)c3Cl)c(C(F)(F)F)nn12 [Example 9, 3-(2,3-dichlorobenzyl)-5-(tetrahydro-2H-pyran-4-yl)-2-(trifluoromethyl)pyrazolo[1,5-a]pyrimidin-7-ol] | > 20000 nM | 1.26 to 10 nM
5 | CCc1nn2c(O)cc(C3CCOCC3)nc2c1Cc1cccc(Cl)c1Cl [Example 15, 3-(2,3-dichlorobenzyl)-2-ethyl-5-(tetrahydro-2H-pyran-4-yl)pyrazolo[1,5-a]pyrimidin-7-ol] | > 20000 nM | 1.26 to 10 nM
6 | Cc1nn2c(NC(N)=O)cc(N3CCOCC3)nc2c1Cc1cccc(C(F)(F)F)c1C [Example 16, 1-(2-methyl-3-(2-methyl-3-(trifluoromethyl)benzyl)-5-morpholinopyrazolo[1,5-a]pyrimidin-7-yl)urea] | > 20000 nM | 12.6 to 100 nM
7 | Cc1c(Cc2c(O)nn3c(O)cc(C4CCOCC4)nc23)cccc1C(F)(F)F [Example 19, 3-(2-methyl-3-(trifluoromethyl)benzyl)-5-(tetrahydro-2H-pyran-4-yl)pyrazolo[1,5-a]pyrimidine-2,7-diol] | > 20000 nM | 12.6 to 100 nM
8 | Oc1nn2c(O)cc(-c3ccncc3)nc2c1Cc1ccccc1Cl [Example 21, 3-(2-chlorobenzyl)-5-(pyridin-4-yl)pyrazolo[1,5-a]pyrimidine-2,7-diol] | > 20000 nM | 126 to 1260 nM

The next lines start with the values.

Row | IC50 [1] | IC50 [2] | SMILES
9 | 1000 to 5000 nM | 0.126 to 1 nM | Cc1nn2c(O)cc(N3CCOCC3)nc2c1Cc1cccc(C(F)(F)F)c1C [Example 1, 2-methyl-3-(2-methyl-3-(trifluoromethyl)benzyl)-5-morpholinopyrazolo[1,5-a]pyrimidin-7-ol]
10 | 1000 to 5000 nM | 1.26 to 10 nM | Cc1nn2c(O)cc(N3CCOC(C)C3)nc2c1Cc1cccc(C(F)(F)F)c1C (stereo not drawn) [Example 2, 2-methyl-3-(2-methyl-3-(trifluoromethyl)benzyl)-5-(2-methylmorpholino)pyrazolo[1,5-a]pyrimidin-7-ol]
11 | 6000 to 10000 nM | 1.26 to 10 nM | Cc1nn2c(O)cc(C3CCOCC3)nc2c1Cc1cccc(C(F)(F)F)c1C [Example 4, 2-methyl-3-(2-methyl-3-(trifluoromethyl)benzyl)-5-(tetrahydro-2H-pyran-4-yl)pyrazolo[1,5-a]pyrimidin-7-ol]
12 | 1000 to 5000 nM | 0.126 to 1 nM | Oc1cc(N2CCOCC2)nc2c(Cc3cccc(Cl)c3Cl)c(C(F)(F)F)nn12 [Example 7, 3-(2,3-dichlorobenzyl)-5-morpholino-2-(trifluoromethyl)pyrazolo[1,5-a]pyrimidin-7-ol]
13 | 1000 to 5000 nM | 1.26 to 10 nM | Cc1c(Cc2cnn3c(O)cc(N4CCOCC4)nc23)cccc1C(F)(F)F [Example 11, 3-(2-methyl-3-(trifluoromethyl)benzyl)-5-morpholinopyrazolo[1,5-a]pyrimidin-7-ol]
14 | 1000 to 5000 nM | 1.26 to 10 nM | Cc1c(Cc2cnn3c(O)cc(-c4ccncc4)nc23)cccc1C(F)(F)F [Example 13, 3-(2-methyl-3-(trifluoromethyl)benzyl)-5-(pyridin-4-yl)pyrazolo[1,5-a]pyrimidin-7-ol]
15 | 1000 to 5000 nM | 1.26 to 10 nM | Cc1cccc(Cc2cnn3c(O)cc(-c4ccncc4)nc23)c1C [Example 14, 3-(2,3-dimethylbenzyl)-5-(pyridin-4-yl)pyrazolo[1,5-a]pyrimidin-7-ol]
16 | < 1000 nM | 12.6 to 100 nM | Cc1nn2c(N)cc(N3CCOCC3)nc2c1Cc1cccc(C(F)(F)F)c1C [Example 17, 2-methyl-3-(2-methyl-3-(trifluoromethyl)benzyl)-5-morpholinopyrazolo[1,5-a]pyrimidin-7-amine]
17 | < 1000 nM | 12.6 to 100 nM | Nc1cc(N2CCOCC2)nc2c(Cc3cccc(Cl)c3Cl)cnn12 [Example 20, 3-(2,3-dichlorobenzyl)-5-morpholinopyrazolo[1,5-a]pyrimidin-7-amine]
18 | 1000 to 5000 nM | 0.126 to 1 nM | Cc1nn2c(O)cc(N3CCOCC3)nc2c1Cc1cccc2ccccc12 [Example 22, 2-methyl-5-morpholino-3-(naphthalen-1-ylmethyl)pyrazolo[1,5-a]pyrimidin-7-ol]
